For test [1], the target named is T1, Alpha-2A adrenergic receptor (Homo sapiens, UniProt P08913).
T1 sequence (P08913 whole entry): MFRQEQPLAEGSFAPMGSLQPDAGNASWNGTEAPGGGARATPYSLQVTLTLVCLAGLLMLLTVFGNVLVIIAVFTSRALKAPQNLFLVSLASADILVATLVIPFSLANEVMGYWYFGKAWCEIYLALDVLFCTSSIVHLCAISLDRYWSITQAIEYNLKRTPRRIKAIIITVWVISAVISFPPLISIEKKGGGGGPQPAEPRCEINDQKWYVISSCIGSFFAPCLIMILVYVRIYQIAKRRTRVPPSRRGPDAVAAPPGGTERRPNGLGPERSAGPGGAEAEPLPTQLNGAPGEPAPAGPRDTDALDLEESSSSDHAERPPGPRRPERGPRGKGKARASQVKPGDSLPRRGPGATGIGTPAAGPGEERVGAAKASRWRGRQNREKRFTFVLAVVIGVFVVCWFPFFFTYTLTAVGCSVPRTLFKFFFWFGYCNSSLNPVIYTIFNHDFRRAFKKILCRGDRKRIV
Briefly: In vitro binding affinity to the human alpha-2A adrenergic receptor.

The target in test [2] is Adrenergic receptor alpha-2 (Rattus norvegicus) (UniProt P22086+P19328+P22909). Put plainly: Inhibition ofmedetomidine-induced loss of righting, which evaluates the ability to block central alpha-2-adrenoceptor. It counts as functional.
Test [3] has as its target T2, Alpha-2C adrenergic receptor (Homo sapiens, UniProt P18825).
T2 sequence (P18825 whole entry): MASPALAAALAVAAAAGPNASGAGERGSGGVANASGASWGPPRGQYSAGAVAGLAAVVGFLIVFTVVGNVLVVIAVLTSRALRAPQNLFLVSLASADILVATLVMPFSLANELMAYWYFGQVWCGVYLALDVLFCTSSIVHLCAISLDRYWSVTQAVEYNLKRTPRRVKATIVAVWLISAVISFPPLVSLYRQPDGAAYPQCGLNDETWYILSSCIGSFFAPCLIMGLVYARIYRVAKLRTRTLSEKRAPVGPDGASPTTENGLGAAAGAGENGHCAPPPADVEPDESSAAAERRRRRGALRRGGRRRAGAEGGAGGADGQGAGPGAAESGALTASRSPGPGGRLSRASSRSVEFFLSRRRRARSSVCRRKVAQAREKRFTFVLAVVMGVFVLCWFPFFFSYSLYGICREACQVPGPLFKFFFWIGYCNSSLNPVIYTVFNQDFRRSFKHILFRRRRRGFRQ
Put plainly: In vitro binding affinity to human alpha-2C adrenergic receptor.

In test [4] the target is Sodium-dependent serotonin transporter (Homo sapiens, UniProt P31645). Briefly: In vitro binding affinity towards human serotonin transporter.
Sequence of Sodium-dependent serotonin transporter (P31645 whole entry): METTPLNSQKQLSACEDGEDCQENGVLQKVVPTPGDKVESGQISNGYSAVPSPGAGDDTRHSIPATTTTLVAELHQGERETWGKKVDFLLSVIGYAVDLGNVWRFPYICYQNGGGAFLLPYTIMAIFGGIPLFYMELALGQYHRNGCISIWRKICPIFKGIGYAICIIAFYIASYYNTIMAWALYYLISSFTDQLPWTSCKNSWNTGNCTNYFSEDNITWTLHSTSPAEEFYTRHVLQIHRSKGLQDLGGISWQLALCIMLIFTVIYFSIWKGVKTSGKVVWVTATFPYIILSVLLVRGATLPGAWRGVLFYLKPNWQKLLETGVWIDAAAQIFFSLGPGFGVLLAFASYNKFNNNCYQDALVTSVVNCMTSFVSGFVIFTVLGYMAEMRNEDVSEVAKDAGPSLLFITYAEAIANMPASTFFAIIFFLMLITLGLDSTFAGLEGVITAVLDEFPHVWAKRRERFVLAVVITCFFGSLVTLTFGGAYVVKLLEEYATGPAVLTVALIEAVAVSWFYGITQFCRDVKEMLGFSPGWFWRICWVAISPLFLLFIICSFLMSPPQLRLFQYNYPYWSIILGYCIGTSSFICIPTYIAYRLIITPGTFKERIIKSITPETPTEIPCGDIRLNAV

Turning to `COc1cc2c(cc1OC)C1=NO[C@@H](CN3CCN(C/C=C(\C)c4cccs4)CC3)[C@@H]1CO2`, the inhibitory constant (Ki) in test [1] was 0.3 nM; in test [3] it was 0.2 nM; in test [4] it was 74 nM. This molecule yielded an ED50 in test [2] of 0.63 mg/kg.
`COc1cc2c(cc1OC)C1=NO[C@@H](CN3CCN(C/C(C)=C/c4ccc(F)cc4)CC3)[C@@H]1CO2`: the Ki in test [1] came to 3.4 nM; in test [3] it was 0.7 nM. Moreover, the ED50 in test [2] is 10 mg/kg.
On to `COc1cc2c(cc1OC)C1=NO[C@@H](CN3CCN(C/C(C)=C/c4ccco4)CC3)[C@@H]1CO2`, for which the Ki in test [1] was 1.7 nM; in test [3] it was 0.5 nM; in test [4], 21 nM. For the same molecule, the ED50 in test [2] came out at 5 mg/kg.
The matching figures for `COc1cc2c(cc1OC)C1=NO[C@@H](CN3CCN(C/C=C(\C)c4ccc(F)cc4)CC3)[C@@H]1CO2`: 2.9 nM, 0.3 nM, 1.3 nM and 1.25 mg/kg.
The matching figures for `COc1cc2c(cc1OC)C1=NO[C@@H](CN3CCN(C/C=C(\C)c4ccco4)CC3)[C@@H]1CO2`: 0.5 nM, 0.4 nM, 22 nM and 0.16 mg/kg.
On to `COc1cc2c(cc1OC)C1=NO[C@@H](CN3CCN(C/C(C)=C/c4cccc(F)c4)CC3)[C@@H]1CO2`, for which the Ki is 1.1 nM in test [1] and 0.2 nM in test [3]. In test [2], this molecule had an ED50 of 0.63 mg/kg.
With `COc1cc2c(cc1OC)C1=NO[C@@H](CN3CCN(C/C(C)=C/c4cccs4)CC3)[C@@H]1CO2`, the Ki in test [1] was determined as 1.7 nM; in test [3], 0.2 nM; in test [4], 2.7 nM. In addition, the 50% effect level in test [2] (ED50) was put at a dose of 0.63 mg/kg.
`COc1ccccc1/C=C(\C)CN1CCN(C[C@@H]2ON=C3c4cc(OC)c(OC)cc4OC[C@H]32)CC1`: the results for the inhibition constant (Ki) in test [1] and in test [3] were 1 nM and 0.4 nM, respectively. Besides, the ED50 in test [2] came out at 2 mg/kg.
In the case of `COc1cc2c(cc1OC)C1=NO[C@@H](CN3CCN(C/C=C/c4ccccc4)CC3)[C@@H]1CO2`, the affinity in test [4], expressed as Ki, was 8.3 nM.
`COc1cc2c(cc1OC)C1=NO[C@@H](CN3CCN(C/C(C)=C/c4cc(F)ccc4F)CC3)[C@@H]1CO2`: the Ki amounted to 0.3 nM in test [1] and 0.2 nM in test [3]. Moreover, the 50% effect level in test [2] (ED50) was put at a dose of 2.5 mg/kg.
Turning to `COc1cc2c(cc1OC)C1=NO[C@@H](CN3CCN(C/C=C(\C)c4ccc(O)cc4)CC3)[C@@H]1CO2`, the Ki in test [1] was determined as 1.9 nM; in test [3], 0.6 nM; in test [4], 7.6 nM. Besides, the ED50 in test [2] is above 2.5 mg/kg.
As to `COc1cc2c(cc1OC)C1=NO[C@@H](CN3CCN(C/C=C\c4ccccc4)CC3)[C@@H]1CO2`, the ED50 in test [2] is above 10 mg/kg. This molecule returned a Ki in test [4] of 35 nM.
`COc1cc2c(cc1OC)C1=NO[C@@H](CN3CCN(C/C(C)=C/c4ccccc4)CC3)[C@@H]1CO2` came in with an ED50 in test [2] of 1.3 mg/kg. The same molecule came in with a Ki in test [3] of 0.2 nM.
For the molecule `COc1cc2c(cc1OC)C1=NO[C@@H](CN3CCN(C/C=C(\C)c4ccsc4)CC3)[C@@H]1CO2`, the values for the Ki in test [1], in test [3] and in test [4] were 1.4 nM, 0.3 nM and 4.8 nM, respectively. The molecule also came in with an ED50 in test [2] of 1.25 mg/kg.
With `COc1cc2c(cc1OC)C1=NO[C@@H](CN3CCN(C/C=C/c4cccc(F)c4)CC3)[C@@H]1CO2`, the Ki in test [1] turned out to be 5.9 nM; in test [3] it was 0.7 nM; in test [4], 2.5 nM. For the same molecule, the ED50 in test [2] amounted to 5 mg/kg.
Consider `COc1cc2c(cc1OC)C1=NO[C@@H](CN3CCN(C/C=C/c4ccc(F)cc4)CC3)[C@@H]1CO2`, for which the Ki in test [1] is 9 nM; in test [3] it was 23 nM; in test [4] it was 5.6 nM. In test [2], this molecule registered an ED50 of 4.7 mg/kg.
Regarding `COc1cc2c(cc1OC)C1=NO[C@@H](CN3CCN(C/C(C)=C/c4cccc(F)c4F)CC3)[C@@H]1CO2`, the figures for the Ki in test [1] and in test [3] were 3 nM and 0.7 nM, respectively. The same molecule yielded an ED50 in test [2] of 10 mg/kg.
On to `COc1cc2c(cc1OC)C1=NO[C@@H](CN3CCN(C/C=C(\C)c4ccc(F)cc4F)CC3)[C@@H]1CO2`, for which the Ki in test [1] was 9.3 nM; in test [3], 0.8 nM; in test [4], 5.4 nM. The same molecule came in with a median effective dose (ED50) in test [2] above 2.5 mg/kg.
The matching figures for `COc1cc2c(cc1OC)C1=NO[C@@H](CN3CCN(C/C=C/c4ccccc4F)CC3)[C@@H]1CO2`: 2.9 nM, 2.8 nM, 13 nM and 2.5 mg/kg.
For the molecule `COc1cc2c(cc1OC)C1=NO[C@@H](CN3CCN(C/C=C(\C)c4ccccc4OC)CC3)[C@@H]1CO2`, the inhibition constant Ki in test [1] was 5.2 nM; in test [3] it was 0.9 nM; in test [4] it was 51 nM. In test [2], this molecule showed a median effective dose (ED50) above 2.5 mg/kg.
On the same counts, the results for `COc1cc2c(cc1OC)C1=NO[C@@H](CN3CCN(C/C=C/c4ccc(Cl)cc4)CC3)[C@@H]1CO2` are 69 nM, 10 nM, 1.3 nM and 10 mg/kg.
On the same counts, the results for `COc1cc2c(cc1OC)C1=NO[C@@H](CN3CCN(C/C(C)=C/c4cccnc4)CC3)[C@@H]1CO2` are 22 nM, 2.1 nM, 63 nM and 3.1 mg/kg.
`COc1cc2c(cc1OC)C1=NO[C@@H](CN3CCN(C/C=C(\C)c4ccccc4)CC3)[C@@H]1CO2` came in with an ED50 in test [2] of 0.3 mg/kg. Further, the affinity in test [4], expressed as Ki, was 4.5 nM.
In the case of `COc1cc2c(cc1OC)C1=NO[C@@H](CN3CCN(C/C(C)=C/c4ccsc4)CC3)[C@@H]1CO2`, the inhibitory constant (Ki) came to 1.1 nM in test [1], 0.2 nM in test [3] and 1.9 nM in test [4]. The ED50 in test [2] is 1.25 mg/kg.

The record behind these values is ChEMBL document CHEMBL1146766, “Synthesis of 3a,4-dihydro-3H-[1]benzopyrano[4,3-c]isoxazoles, displaying combined 5-HT uptake inhibiting and alpha2-adrenoceptor antagonistic activities. Part 2: Further exploration on the cinnamyl moiety” (Bioorg Med Chem Lett, 2004).
